What was measured:
PKM2 = PKM2 (Homo sapiens, UniProt P14618); assay: Immunoprecipitation with 125I-labeled HMGB1 (PKM2 pull-down); assay type: binding; design: endogenous in cells; conditions: 125I-labeled HMGB1
Protocol: FIG. 6: Co-administration of HMGB1 and an activator (A left and right) or an inhibitor (B) of PMK2 has a synergistic cytotoxic effect, as determined in the crystal violet cytotoxicity assay (assays were performed in duplicate, * indicates p<0.05). (C) Immunoprecipitation with I125-labeled HMGB1 (PKM2 pull-down). HMGB1, like phosphotyrosine-peptides, binds close to the allosteric center of PKM2, leading to a competition in binding.

colorectal cancer cells = assay: Crystal violet cytotoxicity assay, cell lines not given; assay type: cell-based; conditions: HMGB1 80 nM, 72 h
Protocol: Human colon carcinoma cell lines SW480, HCT116, HT29 and Caco2, the human glioblastoma cell line U251MG and the Natural killer cell line NK-92 Cl were purchased from ATCC. Cell lines were regularly tested for contamination by multiplex PCR performed in the Genomics and Proteomics Core Facility 2 (DKFZ, Heidelberg, Germany). For experiments, cells were cultured for no more than 10 passages. Rho zero cells were generated as described earlier 1. (Gdynia, G. et al. Danger signaling protein HMGB1 induces a distinct form of cell death accompanied by formation of giant mitochondria. Cancer research 70, 8558-8568). Cells used in the experiments were cultured in RPMI (#1640, colon carcinomas, NK cells) or DMEM high glucose (#41965-039, glioblastoma cells) medium. Rho zero cells were generated as described earlier (Gdynia, G. et al. ibd.). Briefly, cells were cultured in RPMI medium (10% FCS, 1% P/S) supplemented with 250 ng/ml ethidiumbromide, 50 μg/ml L-pyruvate and 5 mg/ml uridine over a period of 12 weeks. For cytotoxicity measurements, cells were cultured in 96-well plates, treated with recombinant human HMGB1 protein (Sigma-Aldrich®), glycyrrhizinic acid ((3β, 18α)-30-hydroxy-11, 30-dioxoolean-12-en-3-yl 2-O-β-D-glucopyranuronosyl-β-D-glucopyranosiduronic acid)) (Sigma-Aldrich®), 10 μM (non-toxic) or 100 μM (cytotoxic) P-M2tide (aa sequence: GGAVDDDpYAQFANGG; #BML-P239-0001; Enzo Life Sciences) or 100 μM ML-265 (Cayman Chemical), then cell viability was assessed by crystal violet staining (Gillies, R. J., Didier, N. & Denton, M. Determination of cell number in monolayer cultures. Analytical biochemistry 159, 109-113 (1986)). Malic enzyme 1 knock-down was performed with 40 nM siRNA using lipofectamine in 6-well plates followed by treatment with 80 nM HMGB1 for 72 h. Sequences of siRNA were: ME1, 5′-[…]-3′ and scrambled control 5′-CCUGCAGUACUUCAAGCGGtt-3′. PKM2 siRNA was from Santa Cruz. A nonspecific siRNA served as control (Dharmacon, Schwerte, Germany). For overexpression of PKM2 or ME1, cells were transfected with pCMV-PKM2 (Sino Biological Inc., Beijing, China) or pCMV-ME1 (OriGene, Rockville, Md., USA) using Lipofectamine 2000. For cytotoxicity measurements confluent cells were cultured in 96-well plates if not otherwise indicated. Cytotoxic activity of supernatants from stimulated NK cells was assessed in 96-well plates for 3 days with RPMI medium as reference. Recombinant human HMGB1 (10 ng, Sigma) suited as positive control. For mass isotopomer assays, cells were cultured in glucose- or glutamine-free medium supplemented with either uniformly labeled (U)-13C-D-glucose or U-13C-glutamine (Sigma-Aldrich®).

tetrameric PK M2 = molecular target: T1, tetrameric PK M2 (Homo sapiens, UniProt P14618); assay: Pyruvate kinase enzymatic assay in cytosolic fractions / homogenates (low PEP); assay type: cell-based
T1 construct: Activities of glycolytic enzymes measured in cytosolic fractions after treatment with HMGB1; endogenous in cells; host or cells: SW480, HCT116, HT29 cytosolic fractions; homogenates of human colon cancer tissue slices
T1 sequence (P14618 2-531): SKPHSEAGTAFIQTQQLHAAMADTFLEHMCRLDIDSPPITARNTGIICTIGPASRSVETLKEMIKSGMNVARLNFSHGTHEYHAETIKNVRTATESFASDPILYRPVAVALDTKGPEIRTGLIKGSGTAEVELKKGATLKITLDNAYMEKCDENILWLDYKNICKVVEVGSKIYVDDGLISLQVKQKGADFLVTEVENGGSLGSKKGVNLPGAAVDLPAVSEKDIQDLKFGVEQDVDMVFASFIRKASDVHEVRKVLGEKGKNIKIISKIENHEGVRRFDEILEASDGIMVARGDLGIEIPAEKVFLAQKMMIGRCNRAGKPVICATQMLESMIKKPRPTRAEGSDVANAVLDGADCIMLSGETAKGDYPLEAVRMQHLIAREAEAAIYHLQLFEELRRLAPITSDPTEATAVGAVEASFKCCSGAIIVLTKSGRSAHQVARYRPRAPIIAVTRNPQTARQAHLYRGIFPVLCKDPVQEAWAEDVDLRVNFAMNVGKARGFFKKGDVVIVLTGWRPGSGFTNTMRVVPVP
Protocol: Enzymatic activities of respiratory chain complexes, glycolytic proteins and malic enzyme were determined in subcellular fractions as previously described (Kaminski, M. M. et al. T cell activation is driven by an ADP-dependent glucokinase linking enhanced glycolysis with mitochondrial reactive oxygen species generation. Cell reports 2, 1300-1315 (2012).Bruncko, M. et al. Naphthamidine urokinase plasminogen activator inhibitors with improved pharmacokinetic properties. Bioorganic & medicinal chemistry letters 15, 93-98, (2005)) using a computer-tuneable spectrophotometer (Spectramax Plus Microplate Reader, Molecular Devices; Sunny Vale, Calif., USA) operating in the dual wavelength mode; samples were analyzed in temperature-controlled 96-well plates in a final volume of 300 μl. Activity of ME1 was recorded in presence of increasing amounts of malic acid (0.02, 0.05, 0.1, 0.2, 0.5, 1, 2.5 mM). Vmax and Km were calculated using a Hanes-Woolf plot. In the presence of high substrate levels the Km for malic acid was similar in all three tested cell lines (SW480: 0.32 mM, HCT116: 0.30 mM, HT29: 0.31 mM). Vmax (mU/mg protein) values were 3.38 (SW480, 0.5-5.0 mM malic acid), 5.77 (HCT116, 0.5-5.0 mM malic acid) and 3.68 (HT29, 0.5-5.0 mM malic acid) and 1.68 (SW480, 0.02-0.2 mM malic acid), 3.24 (HCT116, 0.02-0.2 mM malic acid) and 1.89 (HT29, 0.02-0.2 mM malic acid). Two isoforms of ME1, mitochondrial (NAD(P)+dependent) ME3 and mitochondrial (NAD+dependent) ME2, had very low or no detectable activities (data not shown).

ATP production = ATP production calculated from lactate production rates and oxygen consumption; assay type: cell-based, human; conditions: SW480 cells; HMGB1 80 nM, 24 h
Protocol: (§1) Lactate derived from the metabolism of ^13C6-D-glucose or ^13C5-glutamine was determined by comparing the CH3 group intensities of labeled and non-labeled lactate in NMR. Mitochondrial respiration was measured using an Oroboros 1 oxygraph system. Glycolysis was measured by monitoring the conversion of 5-^3H-Glucose to ^3H2O. Incorporation of ^14C into RNA ribose from U-^14C-labelled glucose was taken as glucose utilization in the pentose phosphate shunt. Enzymatic activities were determined in subcellular fractions as previously described^24.
For analysis of ^13C-lactate efflux 1 ml of the cellular supernatant was centrifuged (8,000×g, 10 min, 4° C.) to spin down cellular debris. To 500 μl of the supernatant 10% of D2O were added respectively and transferred to 5 mm NMR sample tubes. The samples were measured with a Bruker AvanceIII 600 NMR spectrometer, equipped with a cryogenically cooled detection probe (QNP-CryoProbe™).

ATP = assay: Cellular ATP after HMGB1 treatment; assay type: cell-based, human
[1] = system: mitochondrial oxygen consumption; assay: Mitochondrial (cyanide sensitive) respiration, Oroboros oxygraph; assay type: cell-based, human
Protocol: as §1

PKM2, sequence (P14618 whole entry): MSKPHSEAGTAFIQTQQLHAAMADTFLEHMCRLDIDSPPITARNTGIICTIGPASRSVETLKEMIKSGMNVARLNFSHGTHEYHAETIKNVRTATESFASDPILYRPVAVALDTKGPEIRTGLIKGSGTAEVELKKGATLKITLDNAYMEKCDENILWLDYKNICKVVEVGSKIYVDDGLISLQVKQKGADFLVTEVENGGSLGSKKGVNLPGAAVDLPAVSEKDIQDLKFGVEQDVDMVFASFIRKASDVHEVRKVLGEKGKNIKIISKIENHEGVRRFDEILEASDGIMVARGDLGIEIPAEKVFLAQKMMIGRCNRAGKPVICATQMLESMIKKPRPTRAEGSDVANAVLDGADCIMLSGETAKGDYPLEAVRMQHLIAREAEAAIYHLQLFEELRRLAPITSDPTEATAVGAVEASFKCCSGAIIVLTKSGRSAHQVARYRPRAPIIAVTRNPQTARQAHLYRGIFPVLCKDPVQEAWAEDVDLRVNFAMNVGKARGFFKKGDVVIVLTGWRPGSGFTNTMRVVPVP

## HMGB1: recombinant human HMGB1 protein (Sigma-Aldrich); High Mobility Group Box 1 polypeptide, human, SEQ ID NO: 4
PKM2
  binding to PKM2 in vivo (immunoprecipitating PKM2): specific binding
Colorectal cancer cells
  sensitivity of cells to HMGB1 after PKM2 down-regulation (siRNA): sensitized
  sensitivity of cells to HMGB1 after PKM2 overexpression: more resistant
Tetrameric PK M2; all colorectal cancer cell lines tested, HMGB1 80 nM, 24 h
  tetrameric PK M2 activity: specifically inhibited
Tetrameric PK M2; ex vivo tissue slice cultures, HMGB1 160 nM, 72 h
  tetrameric PK M2 activity: specifically inhibited
ATP production
  decline of ATP production: ~50%
ATP; HCT116 cells
  ATP: substantial decrease
ATP; SW480 cells
  ATP: substantial decrease
[1]; HCT116 cells, HMGB1 80 nM, 24 h
  inhibition of mitochondrial oxygen consumption: pronounced
[1]; HT29 cells, HMGB1 80 nM, 24 h
  mitochondrial respiration: only slightly reduced
[1]; SW480 cells, HMGB1 80 nM, 24 h
  inhibition of mitochondrial oxygen consumption: pronounced
[1]; colorectal cancer tissue slices, HMGB1 160 nM, 72 h
  mitochondrial oxygen consumption: strongly decreased

— patent US11274132B2, “Combined preparations of PKM2 modulators and HMGB1” (Ruprecht-Karls-Universität Heidelberg, priority 2015, dated 2022)
